# Target: human NAMPT enzyme (His-hNAMPT) (Homo sapiens (Human), UniProt P43490)
# Assay: NAMPT enzymatic inhibition assay (fluorescence, NADH product)
# Format: biochemical
# Details: [BPS]; read-out: NAMPT IC50 (μM) [BPS]
# Sequence of human NAMPT enzyme (His-hNAMPT) (P43490 whole entry): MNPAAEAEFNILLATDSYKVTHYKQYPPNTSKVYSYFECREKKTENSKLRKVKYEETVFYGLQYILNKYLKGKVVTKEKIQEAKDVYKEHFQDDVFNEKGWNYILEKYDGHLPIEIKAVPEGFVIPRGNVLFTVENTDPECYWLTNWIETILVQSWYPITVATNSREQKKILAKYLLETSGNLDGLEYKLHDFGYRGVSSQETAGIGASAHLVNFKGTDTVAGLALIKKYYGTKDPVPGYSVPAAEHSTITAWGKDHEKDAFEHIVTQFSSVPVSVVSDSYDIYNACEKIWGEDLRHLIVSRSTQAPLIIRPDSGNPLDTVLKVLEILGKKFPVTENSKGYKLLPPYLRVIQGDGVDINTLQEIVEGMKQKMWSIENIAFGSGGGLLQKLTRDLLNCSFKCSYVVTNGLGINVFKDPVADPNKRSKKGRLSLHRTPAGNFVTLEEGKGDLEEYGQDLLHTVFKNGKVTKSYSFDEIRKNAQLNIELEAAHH
row,Compound,IC50 [µM]
1,"CC(C)(C)OC(=O)N1C[C@@H]2[C@@H](CNC(=O)/C=C/c3ccc(N)nc3)[C@@H]2C1 [Example 234, (1R,5S,6s)-tert-butyl 6-(((E)-3-(6-aminopyridin-3-yl)acrylamido)methyl)-3-azabicyclo[3.1.0]hexane-3-carboxylate]",1 to 29
2,"CC1(OC(=O)N2C[C@@H]3[C@@H](CCNC(=O)c4nc5ccncc5s4)[C@@H]3C2)COC1 [Example 62, (1R,5S,6s)-3-methyloxetan-3-yl 6-(2-(thiazolo[5,4-c]pyridine-2-carboxamido)ethyl)-3-azabicyclo[3.1.0]hexane-3-carboxylate]",1 to 29
3,"O=C(/C=C/c1cccnc1)NCC[C@@H]1[C@H]2CN(c3ccc4ccccc4c3)C[C@@H]12 [Example 127, (E)-N-(2-((1R,5S,6s)-3-(naphthalen-2-yl)-3-azabicyclo[3.1.0]hexan-6-yl)ethyl)-3-(pyridin-3-yl)acrylamide]",0.01 to 0.49
4,"CC(C)(C)OC(=O)N1C[C@@H]2[C@H](C1)[C@H]2C(O)CNC(=O)/C=C/c1ccc(N)nc1 (stereo partly drawn) [Example 252, (1R,5S,6r)-tert-butyl 6-(2-((E)-3-(6-aminopyridin-3-yl)acrylamido)-1-hydroxyethyl)-3-azabicyclo[3.1.0]hexane-3-carboxylate]",1 to 29
5,"CC(C)(C)NC(=O)N1C[C@@H]2[C@@H](CCNC(=O)/C=C/c3cccnc3)[C@@H]2C1 [Example 75, (1R,5S,6s)-N-(tert-butyl)-6-(2-((E)-3-(pyridin-3-yl)acrylamido)ethyl)-3-azabicyclo[3.1.0]hexane-3-carboxamide]",0.01 to 0.49
6,"CC(C)(C)OC(=O)N1C[C@@H]2[C@H](C1)[C@H]2C(O)CNC(=O)/C=C/c1cccnc1 (stereo partly drawn) [Example 253, (1R,5S,6r)-tert-butyl 6-(1-hydroxy-2-((E)-3-(pyridin-3-yl)acrylamido)ethyl)-3-azabicyclo[3.1.0]hexane-3-carboxylate]",0.01 to 0.49
7,"Nc1ccc(/C=C/C(=O)NCC[C@@H]2[C@H]3CN(C(=O)NCc4ccccc4)C[C@@H]23)cn1 [Example 28, (1R,5S,6s)-6-(2-((E)-3-(6-aminopyridin-3-yl)acrylamido)ethyl)-N-benzyl-3-azabicyclo[3.1.0]hexane-3-carboxamide]",0.01 to 0.49
8,"O=C(/C=C/c1cccnc1)NCC[C@H]1[C@@H]2CN(c3ccccc3)C(=O)[C@H]12 (racemic) [Example 256 racemic, (E)-N-(2-((1R,5S,6S)-2-oxo-3-phenyl-3-azabicyclo[3.1.0]hexan-6-yl)ethyl)-3-(pyridin-3-yl)acrylamide and (E)-N-(2-((1S,5R,6R)-2-oxo-3-phenyl-3-azabicyclo[3.1.0]hexan-6-yl)ethyl)-3-(pyridin-3-yl)acrylamide]",0.01 to 0.49
9,"Nc1ccc(/C=C/C(=O)NCC[C@@H]2[C@H]3CN(C(=O)c4cccc(C(=O)O)c4)C[C@@H]23)cn1 [Example 178, 3-((1R,5S,6s)-6-(2-((E)-3-(6-aminopyridin-3-yl)acrylamido)ethyl)-3-azabicyclo[3.1.0]hexane-3-carbonyl)benzoic acid]",0.01 to 0.49
10,"O=C(NCC[C@@H]1[C@H]2CN(c3ncccn3)C[C@@H]12)c1cc(-c2cccnc2)on1 [Example 131, 5-(pyridin-3-yl)-N-(2-((1R,5S,6s)-3-(pyrimidin-2-yl)-3-azabicyclo[3.1.0]hexan-6-yl)ethyl)isoxazole-3-carboxamide]",0.01 to 0.49
11,"CC1(OC(=O)N2C[C@@H]3[C@@H](CCNC(=O)C4C[C@@H]4c4cccnc4)[C@@H]3C2)COC1 (mixture of isomers) [Example 53, (1R,5S,6s)-3-methyloxetan-3-yl 6-(2-((1S,2S)-2-(pyridin-3-yl)cyclopropanecarboxamido)ethyl)-3-azabicyclo[3.1.0]hexane-3-carboxylate and (1R,5S,6s)-3-methyloxetan-3-yl 6-(2-((1R,2R)-2-(pyridin-3-yl)cyclopropanecarboxamido)ethyl)-3-azabicyclo[3.1.0]hexane-3-carboxylate]",0.01 to 0.49
12,"CC1(OC(=O)N2C[C@@H]3[C@@H](CCNC(=O)c4cc5cnccc5s4)[C@@H]3C2)COC1 [Example 37, (1R,5S,6s)-3-methyloxetan-3-yl 6-(2-(thieno[3,2-c]pyridine-2-carboxamido)ethyl)-3-azabicyclo[3.1.0]hexane-3-carboxylate]",0.01 to 0.49
13,"CC(C)(C)OC(=O)N1C[C@@H]2[C@@H](CCNC(=O)c3nc4ccncc4s3)[C@@H]2C1 [Example 11, (1R,5S,6s)-tert-butyl 6-(2-(thiazolo[5,4-c]pyridine-2-carboxamido)ethyl)-3-azabicyclo[3.1.0]hexane-3-carboxylate]",0.5 to 0.99
14,"CC1(OC(=O)N2C[C@@H]3[C@@H](CCN/C(=N\C#N)Nc4ccncc4)[C@@H]3C2)COC1 [Example 229, (1R,5S,6s)-3-methyloxetan-3-yl 6-(2-((E)-2-cyano-3-(pyridin-4-yl)guanidino)ethyl)-3-azabicyclo[3.1.0]hexane-3-carboxylate]",0.01 to 0.49
15,"Nc1ccc(/C=C/C(=O)NCC[C@@H]2[C@H]3CN(C(=O)c4ccc(OC(F)F)cc4)C[C@@H]23)cn1 [Example 90, (E)-3-(6-aminopyridin-3-yl)-N-(2-((1R,5S,6s)-3-(4-(difluoromethoxy)benzoyl)-3-azabicyclo[3.1.0]hexan-6-yl)ethyl)acrylamide]",0.01 to 0.49
16,"Nc1ccc(/C=C/C(=O)NCC[C@@H]2[C@H]3CN(C(=O)OC4CCOCC4)C[C@@H]23)cn1 [Example 41, (1R,5S,6s)-tetrahydro-2H-pyran-4-yl 6-(2-((E)-3-(6-aminopyridin-3-yl)acrylamido)ethyl)-3-azabicyclo[3.1.0]hexane-3-carboxylate]",0.01 to 0.49

# Same assay, conditions: [HDB]; read-out: NAMPT IC50 (μM) [HDB]
row,Compound,IC50 [µM]
1,"O=C(/C=C/c1cccnc1)NCC[C@@H]1[C@H]2CN(c3nc(N4CCOCC4)ncc3F)C[C@@H]12 [Example 277, (E)-N-(2-((1R,5S,6s)-3-(5-fluoro-2-morpholinopyrimidin-4-yl)-3-azabicyclo[3.1.0]hexan-6-yl)ethyl)-3-(pyridin-3-yl)acrylamide]",< 0.01
2,"O=C(/C=C/c1cccnc1)NCC[C@@H]1[C@H]2CN(c3nc(Oc4ccccc4)ncc3F)C[C@@H]12 [Example 306, (E)-N-(2-((1R,5S,6s)-3-(5-fluoro-2-phenoxypyrimidin-4-yl)-3-azabicyclo[3.1.0]hexan-6-yl)ethyl)-3-(pyridin-3-yl)acrylamide]",0.01 to 0.49
3,"CC(C)(C)OC(=O)N1C[C@@H]2[C@@H](CCNC(=O)c3cc4cc(N)ncc4s3)[C@@H]2C1 [Example 13, (1R,5S,6s)-tert-butyl 6-(2-(5-aminothieno[2,3-c]pyridine-2-carboxamido)ethyl)-3-azabicyclo[3.1.0]hexane-3-carboxylate]",0.01 to 0.49
4,"O=C(/C=C/c1cccnc1)NCC[C@H]1[C@@H]2CN(c3ccccc3)C(=O)[C@H]12 (racemic) [Example 256 racemic, (E)-N-(2-((1R,5S,6S)-2-oxo-3-phenyl-3-azabicyclo[3.1.0]hexan-6-yl)ethyl)-3-(pyridin-3-yl)acrylamide and (E)-N-(2-((1S,5R,6R)-2-oxo-3-phenyl-3-azabicyclo[3.1.0]hexan-6-yl)ethyl)-3-(pyridin-3-yl)acrylamide]",0.01 to 0.49
5,"O=C(/C=C/c1cccnc1)NCC[C@@H]1[C@H]2CN(c3nc(OCCN4CCOCC4)ncc3F)C[C@@H]12 [Example 331, (E)-N-(2-((1R,5S,6s)-3-(5-fluoro-2-(2-morpholinoethoxy)pyrimidin-4-yl)-3-azabicyclo[3.1.0]hexan-6-yl)ethyl)-3-(pyridin-3-yl)acrylamide]",< 0.01
6,"CS(=O)(=O)Nc1cccc(N2C[C@@H]3[C@@H](CCNC(=O)/C=C/c4cccnc4)[C@@H]3C2)c1 [Example 185, (E)-N-(2-((1R,5S,6s)-3-(3-(methylsulfonamido)phenyl)-3-azabicyclo[3.1.0]hexan-6-yl)ethyl)-3-(pyridin-3-yl)acrylamide]",0.01 to 0.49
7,"O=C(CCc1ccccn1)NCC[C@@H]1[C@H]2CN(c3nc(Cl)ncc3F)C[C@@H]12 [Example 218, N-(2-((1R,5S,6s)-3-(2-chloro-5-fluoropyrimidin-4-yl)-3-azabicyclo[3.1.0]hexan-6-yl)ethyl)-3-(pyridin-2-yl)propanamide]",0.01 to 0.49
8,"O=C(/C=C/c1cccnc1)NCC[C@@H]1[C@H]2CN(Cc3cc(Cl)cc(Cl)c3)C[C@@H]12 [Example 251, (E)-N-(2-((1R,5S,6s)-3-(3,5-dichlorobenzyl)-3-azabicyclo[3.1.0]hexan-6-yl)ethyl)-3-(pyridin-3-yl)acrylamide]",0.01 to 0.49
9,"CC(C)Oc1ncc(F)c(N2C[C@@H]3[C@@H](CCNC(=O)/C=C/c4cccnc4)[C@@H]3C2)n1 [Example 303, (E)-N-(2-((1R,5S,6s)-3-(5-fluoro-2-isopropoxypyrimidin-4-yl)-3-azabicyclo[3.1.0]hexan-6-yl)ethyl)-3-(pyridin-3-yl)acrylamide]",0.01 to 0.49
10,"CNC(=O)COc1ncc(F)c(N2C[C@@H]3[C@@H](CCNC(=O)/C=C/c4cccnc4)[C@@H]3C2)n1 [Example 328, (E)-N-(2-((1R,5S,6s)-3-(5-fluoro-2-(2-(methylamino)-2-oxoethoxy)pyrimidin-4-yl)-3-azabicyclo[3.1.0]hexan-6-yl)ethyl)-3-(pyridin-3-yl)acrylamide]",0.01 to 0.49
11,"O=C(NCC[C@@H]1[C@H]2CN(c3nc(Cl)ncc3F)C[C@@H]12)c1cc2cnccc2[nH]1 [Example 204, N-(2-((1R,5S,6s)-3-(2-chloro-5-fluoropyrimidin-4-yl)-3-azabicyclo[3.1.0]hexan-6-yl)ethyl)-1H-pyrrolo[3,2-c]pyridine-2-carboxamide]",0.01 to 0.49
12,"O=C(NCC[C@@H]1[C@H]2CN(c3nc(Cl)ncc3F)C[C@@H]12)c1cc2ccncc2s1 [Example 223, N-(2-((1R,5S,6s)-3-(2-chloro-5-fluoropyrimidin-4-yl)-3-azabicyclo[3.1.0]hexan-6-yl)ethyl)thieno[2,3-c]pyridine-2-carboxamide]",0.01 to 0.49
13,"CS(=O)(=O)c1cccc(N2C[C@@H]3[C@@H](CCNC(=O)/C=C/c4cccnc4)[C@@H]3C2)c1 [Example 152, (E)-N-(2-((1R,5S,6s)-3-(3-(methylsulfonyl)phenyl)-3-azabicyclo[3.1.0]hexan-6-yl)ethyl)-3-(pyridin-3-yl)acrylamide]",0.01 to 0.49
14,O=C(/C=C/c1cccnc1)NCC[C@@H]1[C@H]2CN(Cc3cnc(Cl)nc3)C[C@@H]12 [Example 316],0.01 to 0.49
15,"O=C(/C=C/c1cccnc1)NCC[C@@H]1[C@H]2CN(Cc3ccc(F)cc3)C[C@@H]12 [Example 247, (E)-N-(2-((1R,5S,6s)-3-(4-fluorobenzyl)-3-azabicyclo[3.1.0]hexan-6-yl)ethyl)-3-(pyridin-3-yl)acrylamide]",0.01 to 0.49

# From patent publication US12421210B2, “Fused bicyclic heterocycles as therapeutic agents” (NEW YORK UNIVERSITY, priority 2018, dated 2025)
